Assay results taken from article PMC10587737, “Dracorhodin targeting CMPK2 attenuates inflammation: A novel approach to sepsis therapy” (Clinical and Translational Medicine, 2023).

Legend:
BMDMs = assay: CCK-8 cytotoxicity assay; assay type: cell-based, mouse; settings: DP 5–80 μM
Description: To detect the viability of cells, a cell counting kit 8 (CCK-8) assay was performed. BMDMs were seeded at 1×10^6 cells/ml in a 96-well plate and incubated overnight at 37℃. Then, we treated the cells with different concentrations of DP (0-160 μM) for 24 h, added CCK-8 reagent to the cell medium and incubated the cells for 1 h. Then, the optical density was measured at a wavelength of 450 nm.

CMPK2^Lys282 protein = assay: MST binding to CMPK2 Lys282 mutant; set-up: species or system human; settings: Lys282 mutated
Description: (§1) Human CMPK2 and K265, K282 and K320 mutated CMPK2 cDNA were cloned and inserted into the pTT5 vector, and the constructed plasmid was amplified by the DH5α strain. The C‐terminus of the cDNA was fused with a 6× His tag, and the N‐terminus was truncated by 22 amino acids (Figure 1B–F and Supporting Information Figure S5A,B). When the free‐style 293‐F cells reached the proper density, approximately 1 mg of expression plasmid was premixed with 3 mg polyethylenimine in UltraFectin medium and incubated prior to transfection. This mixture was then added to the appropriate amount of fresh cell culture medium, incubated for 30 min and collected after 48 h.
(§2) The MST assay is an emerging technique used to quantitatively elucidate binding. The binding parameter between CMPK2 and DP was measured using MST on a Monolith NT.115 system (Germany). CMPK2 was fluorescently labeled with the Monolith NT Protein Labeling Kit RED (L018, NanoTemper Technologies GmbH, Munich, Germany) according to the manufacturer’s instructions. The Monolith NT.115 system was used with Monolith NT.115 standard capillaries (M0-K022). MST assay buffer was used to dilute the labeled CMPK2 to 2 μM. […] The binding and dissociation constants (Kd) were evaluated and calculated using M0-Affinity analysis software version 2.1.3 (Nano Temper Technologies) for the ligand.

CMPK2^Lys265 protein = molecular target: T1, CMPK2^Lys265 protein (Homo sapiens, UniProt Q5EBM0, K265A); assay: MST binding to CMPK2 Lys265 mutant; settings: Lys265 mutated
T1 construct: the N‐terminus was truncated by 22 amino acids; 6xHis (C); made in house; host or cells: FreeStyle 293-F cells (pTT5 vector)
T1 sequence (Q5EBM0 22-449 K265A): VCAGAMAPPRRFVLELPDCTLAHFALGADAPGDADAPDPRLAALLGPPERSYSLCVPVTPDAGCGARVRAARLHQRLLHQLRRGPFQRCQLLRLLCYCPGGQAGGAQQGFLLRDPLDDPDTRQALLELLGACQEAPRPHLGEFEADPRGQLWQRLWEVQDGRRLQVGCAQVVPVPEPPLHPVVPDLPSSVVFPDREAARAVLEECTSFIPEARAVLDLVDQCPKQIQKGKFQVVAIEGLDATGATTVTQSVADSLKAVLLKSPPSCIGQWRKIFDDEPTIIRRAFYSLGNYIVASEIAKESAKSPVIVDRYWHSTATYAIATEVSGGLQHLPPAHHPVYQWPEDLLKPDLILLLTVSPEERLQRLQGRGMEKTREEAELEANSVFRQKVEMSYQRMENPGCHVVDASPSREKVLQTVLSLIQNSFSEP
Description: as §1, §2

CMPK2 mutant at K282 = assay: ADP-GLO kinase activity of CMPK2 K282 mutant; assay type: biochemical, human
Description: as §1
CMPK2 activity was measured by the ADP‐GLO kinase assay according to the guidelines specified in the manufacturer's instructions. In the activity assay, the amount of ADP formed in the CMPK2 reaction was equal to the ATP consumption and proportional to the increase in luminescence generated in the luciferase reaction, which is the experimental principle shown in Figure 1I.

[1] = test system: LPS-induced septic shock in C57BL/6 mice; assay: LPS-induced septic shock model; assay type: in vivo, mouse
Description: Sepsis was induced by intraperitoneal injection of 8- to 12-week-old gender-matched wild-type mice with LPS (E. coli O111:B4, Sigma-Aldrich) at 20 mg per kg body weight. Mouse survival was monitored every 1 h after injection for a total of 72 h. In a separate experiment, mice were treated with the same dose of LPS, and immune sera were collected 6 h post injection. Then, the abdominal cavity was washed with PBS. The levels of IL-1β and TNF-α in serum and peritoneal lavage ﬂuid were determined by ELISA. Then, the livers, kidneys and lungs were immediately removed and washed in ice-cold PBS. They were fixed with 4% paraformaldehyde, which was used for hematoxylin-eosin (H&E), Masson staining and Sirius red staining.

[2] = test system: siCmpk2/dsCmpk2-transduced BMDMs; assay: Inflammasome readouts in siCmpk2- or dsCmpk2-transduced BMDMs; assay type: cell-based, mouse
Description: BMDMs were plated in 6-well plates at a density of 1.5×10^6 cells per well and then transfected with 150 nM siRNA using Lipofectamine RNAiMAX according to the manufacturer’s guidelines (Invitrogen). siRNA sequences were chemically synthesized by GenePharma, and the negative control siRNA was also from GenePharma. The siRNA sequences were as follows: sicmpk2 5’-[…]-3’.
Full-length human CMPK2 was cloned and inserted into a pcDNA3.1(+) vector (Invitrogen) for expression in mouse BMDMs. An HA tag was placed after the C-terminal of CMPK2. Mouse BMDMs were transfected using Fugene HD Transfection Reagent (Promega) with the CMPK2 plasmid. BMDMs were plated in 6-well plates at a density of 1.5×10^6 cells per well and then transfected with 6 μg dsDNA using FuGENE according to the manufacturer’s guidelines (Promega).

CMPK2^Lys320 protein = assay: MST binding to CMPK2 Lys320 mutant; set-up: species or system human; settings: Lys320 mutated
Description: as §1, §2

[3] = myeloid tissue, western blot, DP 40 mg/kg
[4] = serum and peritoneal lavage fluid, DP 2 h pre-treatment, 6 h LPS

COc1c2ccc(-c3ccccc3)oc-2cc(=O)c1C [compound 73, Dracohodin perochlorate]
cell viability (BMDMs): no significant change
binding (Kd by MST) (CMPK2^Lys282 protein): no binding
binding (Kd by MST) (CMPK2^Lys265 protein): no binding
kinase activity of the mutant at K282 (CMPK2 mutant at K282): slight inhibitory effect
blood pressure (hypotension) ([1]; BIOPAC System-MP160): could improve hypotension
heart rate ([1]; BIOPAC System-MP160): no significant difference
blood pressure changes ([1]; BP-2010A instrument): not captured significant differences
survival rate ([1]; DP 40 mg/kg given before or after sepsis outbreak): significantly improved
survival (lethal inflammation) ([1]; DP 10, 20, 40 mg/kg 2 h before LPS 20 mg/kg i.p., 72 h): suppressed the lethal inflammation
LPS-induced inflammatory infiltration and fibrosis ([1]; liver, lung, kidney histopathology, DP 10, 20, 40 mg/kg): distinctly alleviated
body weight, body temperature and heart rate ([1]; model group vs drug administration groups): no significant difference
CMPK2 expression in vivo [1, 3]: markedly blocked
activated caspase-1 [1, 3]: prevents the increase
IL-1β production [1, 4]: reduced
TNF-α production [1, 4]: did not affect
effect on TNF-α in supernatant ([2]; CMPK2-overexpressing BMDMs): negligible
inhibitory effect on IL-1β ([2]; CMPK2-overexpressing BMDMs): reversed
release of TNF-α in supernatant ([2]; WT/siCmpk2 BMDMs, DP 12 or 1 h, ATP/Nigericin): no significant change
ASC oligomerization ([2]; siCmpk2-transduced BMDMs, different concentrations of DP): not significantly altered
binding (Kd by MST) (CMPK2^Lys320 protein): no binding
